Experimental data published in PMC8545574, “Antioxidant, Anti-Inflammatory, and Antidiabetic Activities of Bioactive Compounds from the Fruits of Livistona chinensis Based on Network Pharmacology Prediction” (Oxidative Medicine and Cellular Longevity, 2021).

Key:
[1] = target: α-Glucosidase (from Baker's yeast); test: α-Glucosidase inhibitory assay (p-NPG substrate); details: read-out: IC50 α-Glucosidase inhibitory effect; mean ± SD, n = 3
Method: The extract, fractions, and compounds were dissolved in 5% DMSO and then diluted with phosphate buffer. Briefly, 80 μL PBS, 20 μL of varying concentrations of sample solutions, and 20 μL α-glucosidase solution (1.3 U/mL) were mixed and incubated in 96-well plates at 37°C for 5 min. The reaction started when 20 μL p-nitrophenyl-α-D-glucopyranoside (2.5 mM) was added to the plate. The reaction mixture was incubated for 15 min at 37°C, and then, 80 μL Na2CO3 (0.2 M) was added to stop the reaction.

[2] = tested on: insulin-resistant HepG2 cells; test: Glucose consumption by insulin-resistant HepG2 cells; assay type: cell-based, human; details: for increase of glucose consumption: insulin resistance model of HepG2 cells, compounds at the dose of 50 μM, 24 h; for effect on glucose uptake (in words): insulin-resistant HepG2 cells
Method: HepG2 cells were cultivated in DMEM (without phenol red) containing 10% fetal bovine serum at 37°C in a humidified 5% CO2 atmosphere. An insulin-resistant cell model was established in accordance with a previous method, with some modifications. Cells were seeded in a 96-well plate with 1 × 10^4 cells per well. After incubation for 24 h, the medium was replaced with serum-free medium (without phenol red) containing 5 × 10^−6 mol/L insulin and incubated for 24 h. The cell culture medium was then replaced with the samples at different concentrations. The compounds were first dissolved in DMSO and subsequently diluted with medium containing 1% FBS to achieve different concentrations. The final concentration of DMSO was no more than 0.1%. At the end of the 24 h incubation, glucose in the medium was measured using the glucose oxidase-peroxidase method kit (Nanjing Jiancheng Biological Co., Ltd.). The amount of glucose consumption was calculated as follows: (glucose of the DMEM − glucose concentration of each well).

PTP1B [3] = target: T1, PTP1B (Homo sapiens, UniProt P18031); test: PTP1B enzyme inhibition kinetic study (Lineweaver-Burk and Dixon plots); assay type: biochemical; design: purchased Abcam (Shanghai) Trading Co., Ltd. ab51277; details: for Ki: determined by Dixon plots; for Inhibitory mode: determined by Lineweaver-Burk plots
T1 sequence (P18031 1-321 limits assumed): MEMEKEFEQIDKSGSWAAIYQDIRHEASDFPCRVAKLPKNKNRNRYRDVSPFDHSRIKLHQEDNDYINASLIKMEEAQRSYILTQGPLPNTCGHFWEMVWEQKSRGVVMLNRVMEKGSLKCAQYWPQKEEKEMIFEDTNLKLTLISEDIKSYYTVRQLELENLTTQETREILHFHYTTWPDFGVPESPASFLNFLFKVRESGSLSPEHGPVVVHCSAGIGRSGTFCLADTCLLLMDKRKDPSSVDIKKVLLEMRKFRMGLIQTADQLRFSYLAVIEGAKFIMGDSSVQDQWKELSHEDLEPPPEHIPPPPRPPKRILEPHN
Method: Lineweaver−Burk double reciprocal plot and Dixon plot were used to study the kinetic behavior of active compounds against PTP1B and the corresponding inhibition constants (Ki values). […] The plate reader recorded the absorbance of the reaction mixture every 3 mins. The enzymatic velocity of the enzyme reaction was calculated based on the time − Δabs plot. The Lineweaver−Burk plot and Dixon plot were generated by GraphPad Prism 8 in order to determine the type of PTP1B inhibition and Ki.

[4] = DPPH free radical scavenging assay; assay type: biochemical; details: mean ± SD, n = 3
Method: The DPPH free radical scavenging assay was performed according to a previously reported method. A series of different concentrations of the tested samples and the positive control ascorbic acid were mixed with freshly prepared DPPH (0.2 mM) in a 96-well microplate with a total volume of 150 μL. After leaving the mixture to react in the dark for 30 min, its absorbance was determined at 517 nm. All of the wells with only samples were set as blanks to obtain an absorbance value, which was subtracted from the test sample readings. The percentage inhibition (%) for each sample was calculated by the following formula: (1) Inhibition %=Absblank−Abssamples/Absblank×100%, where Absblank and Abssamples correspond to the absorbance units (at 517 nm) of DPPH solutions incubated in the absence and presence of the tested samples.

PTP1B [5] = target: T1, PTP1B; test: PTP1B inhibitory assay (p-NPP substrate)
Method: PTP1B (10 μg/mL stock solution) was dissolved in 10 mM citrate buffer (pH 6.0), 1 mM dithiothreitol (DTT), and 1 mM N, N, N′, N′-ethylenediaminetetraacetate (EDTA). 20.0 μL PTP1B stock solution and 60 μL citrate buffer were added to each well of a 96-well plastic plate.

[6] = ABTS radical cation scavenging assay; assay type: biochemical; details: mean ± SD, n = 3
Method: The ABTS radical cation (ABTS·+) was prepared by reacting ABTS with potassium persulfate following the method previously described. The ABTS radical cation (ABTS·+) was prepared by mixing with 2.45 mM potassium persulfate and equal volumes of an ABTS solution (7 mM), and then, they were permitted to react in the darkness at room temperature for 12–16 h. Thereafter, the ABTS reagent was diluted with methyl alcohol until reaching an absorbance of 0.70 ± 0.02 units at 734 nm. In a 96-well microplate, ABTS reagent (190 μL in each well) and samples (10 μL in each well) were incubated at room temperature for 20 min. To determine the antioxidant capacity by the ABTS method, the experimental conditions and protocol were identical to those of the DPPH assay. The only difference was that the absorbance was measured at 734 nm.

PTP1B [7] = target: T1, PTP1B; test: Fluorescence quenching measurement of PTP1B; assay type: binding; design: purchased Abcam (Shanghai) Trading Co., Ltd. ab51277; details: for Kd: read-out: K A (binding constant) (converted)
Method: 180 μL of the buffer with 10 μL of the PTP1B at the concentration used in the assays were added into the 96-well black plates followed by 10 μL different concentrations (0, 6.25, 9.37, 12.5, 18.75, 25, and 50 μM) of inhibitor. The excitation wavelength was set at 250 nm, and the fluorescence emission spectra were collected from 300-400 nm with an emission bandwidth of 2 nm. The quenching parameters such as the Stern-Volmer constant (KSV), binding constant (KA), and the number of binding sites (n) were determined by the formula [33]. (4) F0/F=1+KSVQf,logFo−F/F=logKA+nlogQf, where F0 and F are the fluorescence intensities in the absence and presence of a quencher and [Q]f is a concentration of compounds.

[8] = tested on: LPS-stimulated NO release in RAW 264.7 cells; test: Nitrite (Griess) assay of LPS-stimulated NO release; assay type: cell-based; details: Mus musculus, RAW264.7, LPS (1 μg/mL)-stimulated RAW 264.7 cells; mean ± SD, n = 3; read-out: IC50 NO production anti-inflammatory effect
Method: The level of NO production was tested by measuring the nitrite level in the culture medium with the Griess method. Cells were seeded at a density of 2 × 10^4 cells per well in 96-well plates. […] A microplate reader was employed for the optical density measurement at 570 nm.

Row | Structure (SMILES) | IC50 [1] | increase of glucose consumption [2] | effect on glucose uptake (in words) [2] | Ki (PTP1B [3]) | Inhibitory mode (PTP1B [3]) | IC50 [4] | IC50 (PTP1B [5]) | IC50 [6] | K SV (Stern-Volmer constant) (PTP1B [7]) | n (number of binding sites) (PTP1B [7]) | Kd (PTP1B [7]) | IC50 [8]
1 | COC1(C)CC2c3c(cc(O)cc3O1)OC(c1ccc(O)c(O)c1)C2O (stereo not shown) [Compound 1, Livischinol] | 37.3 ± 0.74 µM | 48.9% | stimulated glucose uptake | 1.49 µM | Competitive | 46.8 ± 1.53 µM | 9.41 ± 0.08 µM | 34.91 ± 0.07 µM | 37000 L/mol | 1.08 | 10.5 µM | –
2 | COc1c(O)cc(O)c2c(=O)cc(-c3ccccc3)oc12 [Compound 6, wogonin] | > 100 µM | – | little effect | 4.18 µM | Mixed-type | 99.36 ± 0.44 µM | 22.2 ± 0.58 µM | > 100 µM | 22000 L/mol | 1.12 | 76.9 µM | 49.4 ± 1.85 µM
3 | COc1cc(O)cc2c1C(=O)c1c(cc(C)c(C(=O)OCC(O)CO)c1O)C2=O (stereo not shown) [Compound 44, variecolorquinones A] | 29.6 ± 0.4 µM | 42.8% | stimulated glucose uptake | 2.8 µM | Competitive | 23.1 ± 0.27 µM | 15.8 ± 0.29 µM | 13 ± 0.27 µM | 23000 L/mol | 0.97 | 17.2 µM | –
4 | COc1cc([C@H](O)[C@H](CO)Oc2ccc(CCCO)cc2OC)ccc1O [Compound 19, threo-(7S,8S)-guaiacyl-glycerol-β-O-4′-dihydroconiferyl ether] | 58.37 ± 0.44 µM | – | – | – | – | > 100 µM | 95.63 ± 0.47 µM | 54.67 ± 0.34 µM | – | – | – | 43.6 ± 0.9 µM
5 | COc1cc(C2Oc3c(OC)cc(CCCO)cc3C2CO)ccc1OC1OC(CO)C(O)C(O)C1O [Compound 16, (7S,8R)-dihydrodehydrodiconiferyl alcohol-4-O-β-D-glucopyranoside] | > 100 µM | – | – | – | – | > 100 µM | > 100 µM | > 100 µM | – | – | – | 36.7 ± 0.8 µM
6 | COc1cc(C2Oc3c(OC)cc(CCCO)cc3C2CO)cc(OC)c1O [Compound 14, (7S,8R)-5-methoxydihydrodehydroconiferyl alcohol] | 62.2 ± 1.03 µM | – | – | – | – | 60.3 ± 0.16 µM | > 100 µM | 45.13 ± 0.41 µM | – | – | – | 70 ± 5.33 µM
7 | COc1cc(C2Oc3c(OC)cc(CCCOC4OC(CO)C(O)C(O)C4O)cc3C2CO)ccc1O [Compound 17, (7S,8R)-dihydrodehydrodiconiferyl alcohol-9′-O-β-D-glucoside] | > 100 µM | – | – | – | – | > 100 µM | > 100 µM | 33.49 ± 0.31 µM | – | – | – | 17.3 ± 0.6 µM
8 | CN(CCOc1ccc(CC2SC(=O)NC2=O)cc1)c1ccccn1 (stereo not shown) [rosiglitazone, reference compound] | – | 46.7% | – | – | – | – | – | – | – | – | – | –
9 | COc1cc([C@H]2OC[C@H]3[C@H]2CO[C@@H]3c2cc(OC)c(O[C@@H](CO)[C@@H](O)c3cc(OC)c(O)c(OC)c3)c(OC)c2)cc(OC)c1O [Compound 36, (7S,7′S,7^″S,8R,8′R,8^″R)-4′,4^″-dihydroxy-3,3′,3^″,5,5′,5^″-hexamethoxy-7,9′:7′,9-diepoxy-4,8^″-oxy-8,8′-sesquineolignan-7^″,9^″-diol] | 22.7 ± 1.07 µM | – | – | – | – | 62.44 ± 0.42 µM | 63.19 ± 0.33 µM | 31.1 ± 0.44 µM | – | – | – | 79.7 ± 1.17 µM
10 | COc1cc([C@@H](O)[C@H](CO)Oc2c(OC)cc([C@@H]3OC[C@@H]4[C@H]3CO[C@H]4c3cc(OC)c(O)c(OC)c3)cc2OC)ccc1O [Compound 35, (7R,7′R,7^″R,8S,8′S,8^″S)-4′,4^″-dihydroxy-3,3′,3^″,5,5′-pentamethoxy-7,9′:7′,9-diepoxy-4,8^″-oxy-8,8′-sesquineolignan-7^″,9^″-diol] | 19.7 ± 0.21 µM | – | – | – | – | 65.9 ± 1.52 µM | 63.16 ± 0.3 µM | 31.18 ± 0.24 µM | – | – | – | 26.2 ± 0.19 µM
